Key:
Endothelin-1 receptor = target: T1, Endothelin-1 receptor (Rattus norvegicus, UniProt P26684); assay: Concentration required to produce 50% inhibition of binding against ET A receptor obtained from rat thoracic aortic membrane
T1 sequence (P26684 whole entry): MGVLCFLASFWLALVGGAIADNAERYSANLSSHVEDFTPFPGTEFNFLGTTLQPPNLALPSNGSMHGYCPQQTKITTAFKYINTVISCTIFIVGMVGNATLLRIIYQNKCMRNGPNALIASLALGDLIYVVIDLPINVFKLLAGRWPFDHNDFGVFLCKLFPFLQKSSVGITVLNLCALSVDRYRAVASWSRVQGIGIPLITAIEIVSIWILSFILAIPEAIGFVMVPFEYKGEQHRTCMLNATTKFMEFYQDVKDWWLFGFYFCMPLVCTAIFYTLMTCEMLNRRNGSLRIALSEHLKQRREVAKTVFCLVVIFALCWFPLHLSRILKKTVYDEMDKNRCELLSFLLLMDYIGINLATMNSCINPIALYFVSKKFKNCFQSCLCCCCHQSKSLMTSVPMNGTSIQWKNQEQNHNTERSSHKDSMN

[1] = target: T2, Endothelin receptor type B (Rattus norvegicus, UniProt P21451); assay: Concentration required to produce 50% inhibition of binding against ET B receptor obtained from rat brain membrane
T2 sequence (P21451 whole entry): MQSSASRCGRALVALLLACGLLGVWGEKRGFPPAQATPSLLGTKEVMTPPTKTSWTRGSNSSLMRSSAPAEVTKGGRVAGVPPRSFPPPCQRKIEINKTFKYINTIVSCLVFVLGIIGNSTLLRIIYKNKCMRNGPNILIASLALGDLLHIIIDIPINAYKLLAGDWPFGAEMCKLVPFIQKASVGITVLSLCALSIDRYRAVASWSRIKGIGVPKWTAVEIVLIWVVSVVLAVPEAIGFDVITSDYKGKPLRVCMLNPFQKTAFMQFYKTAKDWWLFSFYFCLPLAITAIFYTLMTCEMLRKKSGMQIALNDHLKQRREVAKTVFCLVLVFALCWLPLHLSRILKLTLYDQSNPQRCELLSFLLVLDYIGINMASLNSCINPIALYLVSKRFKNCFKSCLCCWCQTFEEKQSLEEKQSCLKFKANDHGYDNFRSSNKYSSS

Compound	pIC50 (Endothelin-1 receptor)	pIC50 [1]
CC[C@H](C)[C@H](NC(=O)[C@H](CC(=O)O)NC(=O)[C@H](CC(C)C)NC(=O)[C@H](Cc1cnc[nH]1)NC(=O)[C@H](CS)NC(=O)[C@H](Cc1ccccc1)NC(=O)[C@H](Cc1ccc(O)cc1)NC(=O)[C@@H](NC(=O)[C@H](CS)NC(=O)[C@H](CCC(=O)O)NC(=O)[C@H](CCCCN)NC(=O)[C@H](CC(=O)O)NC(=O)[C@H](CCSC)NC(=O)[C@H](CC(C)C)NC(=O)[C@H](CO)NC(=O)[C@H](CO)NC(=O)[C@H](CS)NC(=O)[C@H](CO)NC(=O)[C@@H](N)CS)C(C)C)C(=O)N[C@@H](C(=O)N[C@@H](Cc1c[nH]c2ccccc12)C(=O)O)C1CCCCC1 [Endothelin-1 analogue]	7.04	9.59
CC[C@H](C)[C@H](NC(=O)[C@H](CC(=O)O)NC(=O)[C@H](CC(C)C)NC(=O)[C@H](Cc1cnc[nH]1)NC(=O)[C@H](CS)NC(=O)[C@H](Cc1ccccc1)NC(=O)[C@H](Cc1ccc(O)cc1)NC(=O)[C@@H](NC(=O)[C@H](CS)NC(=O)[C@H](CCC(=O)O)NC(=O)[C@H](CCCCN)NC(=O)[C@H](CC(=O)O)NC(=O)[C@H](CCSC)NC(=O)[C@H](CC(C)C)NC(=O)[C@H](CO)NC(=O)[C@H](CO)NC(=O)[C@H](CS)NC(=O)[C@H](CO)NC(=O)[C@@H](N)CS)C(C)C)C(=O)N[C@@H](Cc1c[nH]c2ccccc12)C(=O)N[C@@H](Cc1c[nH]c2ccccc12)C(=O)O [Endothelin-1 analogue]	6.71	9.77
CCC(CC)C[C@@H](NC(=O)[C@@H](NC(=O)[C@H](CC(=O)O)NC(=O)[C@H](CC(C)C)NC(=O)[C@H](Cc1cnc[nH]1)NC(=O)[C@H](CS)NC(=O)[C@H](Cc1ccccc1)NC(=O)[C@H](Cc1ccc(O)cc1)NC(=O)[C@@H](NC(=O)[C@H](CS)NC(=O)[C@H](CCC(=O)O)NC(=O)[C@H](CCCCN)NC(=O)[C@H](CC(=O)O)NC(=O)[C@H](CCSC)NC(=O)[C@H](CC(C)C)NC(=O)[C@H](CO)NC(=O)[C@H](CO)NC(=O)[C@H](CS)NC(=O)[C@H](CO)NC(=O)[C@@H](N)CS)C(C)C)[C@H](C)CC)C(=O)N[C@@H](Cc1c[nH]c2ccccc12)C(=O)O [Endothelin-1 analogue]	8.06	9.78
CC[C@H](C)[C@H](NC(=O)[C@H](CC(=O)O)NC(=O)[C@H](CC(C)C)NC(=O)[C@H](Cc1cnc[nH]1)NC(=O)[C@H](CS)NC(=O)[C@H](Cc1ccccc1)NC(=O)[C@H](Cc1ccc(O)cc1)NC(=O)[C@@H](NC(=O)[C@H](CS)NC(=O)[C@H](CCC(=O)O)NC(=O)[C@H](CCCCN)NC(=O)[C@H](CC(=O)O)NC(=O)[C@H](CCSC)NC(=O)[C@H](CC(C)C)NC(=O)[C@H](CO)NC(=O)[C@H](CO)NC(=O)[C@H](CS)NC(=O)[C@H](CO)NC(=O)[C@@H](N)CS)C(C)C)C(=O)N[C@H](C(=O)N[C@@H](Cc1c[nH]c2ccccc12)C(=O)O)C1CCCCC1 [Endothelin-1 analogue]	9.88	10
CCC[C@@H](NC(=O)[C@@H](NC(=O)[C@H](CC(=O)O)NC(=O)[C@H](CC(C)C)NC(=O)[C@H](Cc1cnc[nH]1)NC(=O)[C@H](CS)NC(=O)[C@H](Cc1ccccc1)NC(=O)[C@H](Cc1ccc(O)cc1)NC(=O)[C@@H](NC(=O)[C@H](CS)NC(=O)[C@H](CCC(=O)O)NC(=O)[C@H](CCCCN)NC(=O)[C@H](CC(=O)O)NC(=O)[C@H](CCSC)NC(=O)[C@H](CC(C)C)NC(=O)[C@H](CO)NC(=O)[C@H](CO)NC(=O)[C@H](CS)NC(=O)[C@H](CO)NC(=O)[C@@H](N)CS)C(C)C)[C@H](C)CC)C(=O)N[C@@H](Cc1c[nH]c2ccccc12)C(=O)O [Endothelin-1 analogue]	7.6	10

Continued, values first:

pIC50 (Endothelin-1 receptor)	pIC50 [1]	Compound
5.77	7.96	CC[C@H](C)[C@H](NC(=O)[C@H](CC(=O)O)NC(=O)[C@H](CC(C)C)NC(=O)[C@H](Cc1cnc[nH]1)NC(=O)[C@H](CS)NC(=O)[C@H](Cc1ccccc1)NC(=O)[C@H](Cc1ccc(O)cc1)NC(=O)[C@@H](NC(=O)[C@H](CS)NC(=O)[C@H](CCC(=O)O)NC(=O)[C@H](CCCCN)NC(=O)[C@H](CC(=O)O)NC(=O)[C@H](CCSC)NC(=O)[C@H](CC(C)C)NC(=O)[C@H](CO)NC(=O)[C@H](CO)NC(=O)[C@H](CS)NC(=O)[C@H](CO)NC(=O)[C@@H](N)CS)C(C)C)C(=O)N[C@H](C)C(=O)N[C@@H](Cc1c[nH]c2ccccc12)C(=O)O [Endothelin-1 analogue]
6.13	7.55	CC[C@@H](C)[C@H](NC(=O)[C@H](CC(=O)O)NC(=O)[C@H](CC(C)C)NC(=O)[C@H](Cc1cnc[nH]1)NC(=O)[C@H](CS)NC(=O)[C@H](Cc1ccccc1)NC(=O)[C@H](Cc1ccc(O)cc1)NC(=O)[C@@H](NC(=O)[C@H](CS)NC(=O)[C@H](CCC(=O)O)NC(=O)[C@H](CCCCN)NC(=O)[C@H](CC(=O)O)NC(=O)[C@H](CCSC)NC(=O)[C@H](CC(C)C)NC(=O)[C@H](CO)NC(=O)[C@H](CO)NC(=O)[C@H](CS)NC(=O)[C@H](CO)NC(=O)[C@@H](N)CS)C(C)C)C(=O)N[C@H](Cc1cnc[nH]1)C(=O)N[C@@H](Cc1c[nH]c2ccccc12)C(=O)O [Endothelin-1 analogue]
9.93		CC[C@H](C)[C@H](NC(=O)[C@H](CC(=O)O)NC(=O)[C@H](CC(C)C)NC(=O)[C@H](Cc1cnc[nH]1)NC(=O)[C@H](CS)NC(=O)[C@H](Cc1ccccc1)NC(=O)[C@H](Cc1ccc(O)cc1)NC(=O)[C@@H](NC(=O)[C@H](CS)NC(=O)[C@H](CCC(=O)O)NC(=O)[C@H](CCCCN)NC(=O)[C@H](CC(=O)O)NC(=O)[C@H](CCSC)NC(=O)[C@H](CC(C)C)NC(=O)[C@H](CO)NC(=O)[C@H](CO)NC(=O)[C@H](CS)NC(=O)[C@H](CO)NC(=O)[C@@H](N)CS)C(C)C)C(=O)N[C@H](C(=O)N[C@@H](Cc1c[nH]c2ccccc12)C(=O)O)[C@@H](C)CC [Endothelin-1 analogue]
7.53	9.4	CC[C@H](C)[C@H](NC(=O)[C@H](CC(=O)O)NC(=O)[C@H](CC(C)C)NC(=O)[C@H](Cc1cnc[nH]1)NC(=O)[C@H](CS)NC(=O)[C@H](Cc1ccccc1)NC(=O)[C@H](Cc1ccc(O)cc1)NC(=O)[C@@H](NC(=O)[C@H](CS)NC(=O)[C@H](CCC(=O)O)NC(=O)[C@H](CCCCN)NC(=O)[C@H](CC(=O)O)NC(=O)[C@H](CCSC)NC(=O)[C@H](CC(C)C)NC(=O)[C@H](CO)NC(=O)[C@H](CO)NC(=O)[C@H](CS)NC(=O)[C@H](CO)NC(=O)[C@@H](N)CS)C(C)C)C(=O)N[C@@H](C)C(=O)N[C@@H](Cc1c[nH]c2ccccc12)C(=O)O [Endothelin-1 analogue]
7.59		CC[C@@H](C)[C@@H](NC(=O)[C@@H](NC(=O)[C@H](CC(=O)O)NC(=O)[C@H](CC(C)C)NC(=O)[C@H](Cc1cnc[nH]1)NC(=O)[C@H](CS)NC(=O)[C@H](Cc1ccccc1)NC(=O)[C@H](Cc1ccc(O)cc1)NC(=O)[C@@H](NC(=O)[C@H](CS)NC(=O)[C@H](CCC(=O)O)NC(=O)[C@H](CCCCN)NC(=O)[C@H](CC(=O)O)NC(=O)[C@H](CCSC)NC(=O)[C@H](CC(C)C)NC(=O)[C@H](CO)NC(=O)[C@H](CO)NC(=O)[C@H](CS)NC(=O)[C@H](CO)NC(=O)[C@@H](N)CS)C(C)C)[C@@H](C)CC)C(=O)N[C@@H](Cc1c[nH]c2ccccc12)C(=O)O [Endothelin-1 analogue]

— BindingDB's records for doi:10.1016/S0960-894X(01)80247-X (1994)
